Experimental data published in the NIST ThermoML archive (doi:10.1016/j.jct.2018.03.013).

Test: xn = mol fraction of the nth substance listed
Conditions: 100 kPa, Liquid; for speed of sound: Frequency=3 MHz, Linear variable-path acoustic interferometer; for mass density: Pycnometric method

C=C(C)C(=O)OCC [ethyl 2-methylpropenoate] + CC#N
Conditions	mass density [kg/m3]	speed of sound [m/s]
293.15 K, x2 = 0	912.3	1196.8
293.15 K, x2 = 0.0556	909.47	1200.9
293.15 K, x2 = 0.1112	906.38	1205
293.15 K, x2 = 0.1631	903.24	1208.8
293.15 K, x2 = 0.2147	899.86	1212.6
293.15 K, x2 = 0.2795	895.21	1217.4
293.15 K, x2 = 0.3446	890.04	1222.2
293.15 K, x2 = 0.4132	883.98	1227.4
293.15 K, x2 = 0.4819	877.18	1232.8
293.15 K, x2 = 0.5597	868.44	1239.5
293.15 K, x2 = 0.6375	858.38	1246.9
293.15 K, x2 = 0.7251	845.11	1256.4
293.15 K, x2 = 0.8113	829.5	1267.7
293.15 K, x2 = 0.9014	809.62	1282.6
293.15 K, x2 = 0.9542	795.78	1293.4
298.15 K, x2 = 0	907.18	1176.9
298.15 K, x2 = 0.0556	904.36	1181
298.15 K, x2 = 0.1112	901.28	1185.1
298.15 K, x2 = 0.1631	898.14	1188.8
298.15 K, x2 = 0.2147	894.76	1192.5
298.15 K, x2 = 0.2795	890.11	1197.2
298.15 K, x2 = 0.3446	884.94	1201.9
298.15 K, x2 = 0.4132	878.87	1207
298.15 K, x2 = 0.4819	872.05	1212.3
298.15 K, x2 = 0.5597	863.29	1218.8
298.15 K, x2 = 0.6375	853.22	1226
298.15 K, x2 = 0.7251	839.92	1235.4
298.15 K, x2 = 0.8113	824.27	1246.5
298.15 K, x2 = 0.9014	804.36	1261.1
298.15 K, x2 = 0.9542	790.5	1271.8
303.15 K, x2 = 0	902.06	1157.6
303.15 K, x2 = 0.0556	899.25	1161.8
303.15 K, x2 = 0.1112	896.18	1165.9
303.15 K, x2 = 0.1631	893.05	1169.6
303.15 K, x2 = 0.2147	889.66	1173.3
303.15 K, x2 = 0.2795	885.01	1177.9
303.15 K, x2 = 0.3446	879.82	1182.6
303.15 K, x2 = 0.4132	873.74	1187.7
303.15 K, x2 = 0.4819	866.92	1193
303.15 K, x2 = 0.5597	858.14	1199.5
303.15 K, x2 = 0.6375	848.05	1206.7
303.15 K, x2 = 0.7251	834.72	1216.2
303.15 K, x2 = 0.8113	819.05	1227.4
303.15 K, x2 = 0.9014	799.1	1242.2
303.15 K, x2 = 0.9542	785.22	1252.9
308.15 K, x2 = 0	896.94	1139.4
308.15 K, x2 = 0.0556	894.14	1143.6
308.15 K, x2 = 0.1112	891.07	1147.7
308.15 K, x2 = 0.1631	887.95	1151.4
308.15 K, x2 = 0.2147	884.57	1155
308.15 K, x2 = 0.2795	879.91	1159.6
308.15 K, x2 = 0.3446	874.71	1164.3
308.15 K, x2 = 0.4132	868.61	1169.3
308.15 K, x2 = 0.4819	861.78	1174.6
308.15 K, x2 = 0.5597	852.99	1181
308.15 K, x2 = 0.6375	842.87	1188.1
308.15 K, x2 = 0.7251	829.52	1197.5
308.15 K, x2 = 0.8113	813.82	1208.6
308.15 K, x2 = 0.9014	793.83	1223.4
308.15 K, x2 = 0.9542	779.93	1234.1
313.15 K, x2 = 0	891.83	1121.5
313.15 K, x2 = 0.0556	889.04	1125.6
313.15 K, x2 = 0.1112	885.98	1129.8
313.15 K, x2 = 0.1631	882.85	1133.5
313.15 K, x2 = 0.2147	879.47	1137.1
313.15 K, x2 = 0.2795	874.81	1141.7
313.15 K, x2 = 0.3446	869.6	1146.3
313.15 K, x2 = 0.4132	863.49	1151.3
313.15 K, x2 = 0.4819	856.64	1156.5
313.15 K, x2 = 0.5597	847.83	1162.9
313.15 K, x2 = 0.6375	837.7	1169.9
313.15 K, x2 = 0.7251	824.32	1179.2
313.15 K, x2 = 0.8113	808.59	1190.3
313.15 K, x2 = 0.9014	788.57	1205
313.15 K, x2 = 0.9542	774.64	1215.7
318.15 K, x2 = 0	886.71	1104.6
318.15 K, x2 = 0.0556	883.94	1108.7
318.15 K, x2 = 0.1112	880.88	1112.8
318.15 K, x2 = 0.1631	877.75	1116.5
318.15 K, x2 = 0.2147	874.37	1120.1
318.15 K, x2 = 0.2795	869.7	1124.6
318.15 K, x2 = 0.3446	864.49	1129.2
318.15 K, x2 = 0.4132	858.37	1134.1
318.15 K, x2 = 0.4819	851.5	1139.2
318.15 K, x2 = 0.5597	842.68	1145.4
318.15 K, x2 = 0.6375	832.52	1152.3
318.15 K, x2 = 0.7251	819.12	1161.4
318.15 K, x2 = 0.8113	803.35	1172.3
318.15 K, x2 = 0.9014	783.3	1186.7
318.15 K, x2 = 0.9542	769.35	1197.3
